Assay results from patent US11725199B2, “Lactic acid bacteria with sweetening properties and uses thereof” (DUPONT NUTRITION BIOSCIENCES APS, priority 2017, dated 2023).
Where a chain is given by its changes, count along the chain named.

How the values were obtained:
Experiment in all cases: Maximal forward velocity and Km of GlcK, glucose varied (test C)
Assay type in all cases: biochemical
[1] = target: T1, Streptococcus thermophilus glucokinase (GlcK) of strain DGCC7710 (DSM28255, GlcK type ST1), non-mutated, SEQ ID NO: 2 (Streptococcus thermophilus, UniProt Q5M4Y5); settings: DGCC7710 crude extract; glucose 0, 5, 10, 15, 20 mM; 1 mM ATP; pH 7.2; 30° C; average of three experiments
T1 construct: G-6PDH/NADP coupled assay
T1 sequence (Q5M4Y5 1-322): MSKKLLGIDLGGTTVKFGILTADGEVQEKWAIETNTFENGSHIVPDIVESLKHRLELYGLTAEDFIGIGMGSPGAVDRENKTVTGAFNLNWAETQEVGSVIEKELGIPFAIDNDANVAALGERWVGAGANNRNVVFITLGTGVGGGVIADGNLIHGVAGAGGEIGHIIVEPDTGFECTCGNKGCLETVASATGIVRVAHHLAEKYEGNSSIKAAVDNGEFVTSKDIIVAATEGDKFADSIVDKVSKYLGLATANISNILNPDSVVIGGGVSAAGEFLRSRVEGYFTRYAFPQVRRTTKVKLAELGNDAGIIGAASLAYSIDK
Method: The linear regression representing the inverse of the specific velocity in function of the inverse of the glucose concentration gives the inverse of the maximal forward velocity at the intersection with the Y-axis of the graphic.
A fresh overnight culture of a Streptococcus thermophilus strain in M17 containing 30 g/L lactose was obtained and used to inoculate at 1% (vol/vol) 10 ml of fresh M17 30 g/L lactose. Cells were harvested by centrifugation (6000 g, 10 min, 4° C.) at a 600 nm optical density (OD600) of 0.8+/−0.2, washed in 5 ml cold GLCK buffer (5 mM MgCl2, 10 mM K2HPO4/KH2PO4 [pH 7.2]), and resuspended in 500 μl cold GLCK buffer. EDTA-free protease inhibitors “cOmplete™” (Roche, supplier reference 04693132001) was added in GLCK buffer as described by the provider. Cells were disrupted by the addition of 100 mg glass beads (150-212 μm, Sigma G1145) to 200 μl resuspended cells and oscillation at a frequency of 30 cycles/s for 6 min in a MM200 oscillating mill (Retsch, Haan, Germany). […] Total protein content was determined by using the FLUKA Protein Quantification Kit-Rapid (ref 51254). […] The optical density at 340 nm was measured for 5 minutes by using a Synergy HT multi-detection microplate reader (BIO-TEK). […] Glucokinase activity was calculated as follows: […]

[2] = target: T2, Streptococcus thermophilus glucokinase (GlcK) variant E275K of DGCC7710, strain DSM32587 (DGCC12534), SEQ ID NO: 22 (Streptococcus thermophilus, UniProt Q5M4Y5, E275K); settings: DSM32587 crude extract, glucose 0, 5, 10, 15, 20 mM, 1 mM ATP, pH 7.2, 30° C
T2 construct: G-6PDH/NADP coupled assay
T2 sequence (Q5M4Y5 1-322 E275K): T1 sequence (Q5M4Y5 1-322) with E275K
Method: A fresh overnight culture of a Streptococcus thermophilus strain in M17 containing 30 g/L lactose was obtained and used to inoculate at 1% (vol/vol) 10 ml of fresh M17 30 g/L lactose. Cells were harvested by centrifugation (6000 g, 10 min, 4° C.) at a 600 nm optical density (OD600) of 0.8+/−0.2, washed in 5 ml cold GLCK buffer (5 mM MgCl2, 10 mM K2HPO4/KH2PO4 [pH 7.2]), and resuspended in 500 μl cold GLCK buffer. EDTA-free protease inhibitors “cOmplete™” (Roche, supplier reference 04693132001) was added in GLCK buffer as described by the provider. Cells were disrupted by the addition of 100 mg glass beads (150-212 μm, Sigma G1145) to 200 μl resuspended cells and oscillation at a frequency of 30 cycles/s for 6 min in a MM200 oscillating mill (Retsch, Haan, Germany). […] Total protein content was determined by using the FLUKA Protein Quantification Kit-Rapid (ref 51254). The glucokinase activity in the cell extracts was determined spectrophotometrically by a glucose-6-phosphate dehydrogenase (G-6PDH, EC1.1.1.49):[…] assay (Porter et al., 1982), essentially as described by Pool et al. (2006). […] The optical density at 340 nm was measured for 5 minutes by using a Synergy HT multi-detection microplate reader (BIO-TEK). […] Glucokinase activity was calculated as follows: […]

[3] = target: T3, Streptococcus thermophilus glucokinase (GlcK) of strain ST1.1 (parent) (Streptococcus thermophilus, UniProt Q5M4Y5)
T3 construct: G-6PDH/NADP coupled assay
T3 sequence (Q5M4Y5 1-322): T1 sequence (Q5M4Y5 1-322)
Method: (§1) A fresh overnight culture of a Streptococcus thermophilus strain in M17 containing 30 g/L lactose was obtained and used to inoculate at 1% (vol/vol) 10 ml of fresh M17 30 g/L lactose. Cells were harvested by centrifugation (6000 g, 10 min, 4° C.) at a 600 nm optical density (OD600) of 0.8+/−0.2, washed in 5 ml cold GLCK buffer (5 mM MgCl2, 10 mM K2HPO4/KH2PO4 [pH 7.2]), and resuspended in 500 μl cold GLCK buffer. EDTA-free protease inhibitors “cOmplete™” (Roche, supplier reference 04693132001) was added in GLCK buffer as described by the provider. Cells were disrupted by the addition of 100 mg glass beads (150-212 μm, Sigma G1145) to 200 μl resuspended cells and oscillation at a frequency of 30 cycles/s for 6 min in a MM200 oscillating mill (Retsch, Haan, Germany). Cell debris and glass beads were removed by centrifugation (14000 g, 15 min, 4° C.), and supernatant transferred into a clean 1.5 mL centrifuge tube kept on ice. Total protein content was determined by using the FLUKA Protein Quantification Kit-Rapid (ref 51254). The glucokinase activity in the cell extracts was determined spectrophotometrically by a glucose-6-phosphate dehydrogenase (G-6PDH, EC1.1.1.49):[…] assay (Porter et al., 1982), essentially as described by Pool et al. (2006). […] The optical density at 340 nm was measured for 5 minutes by using a Synergy HT multi-detection microplate reader (BIO-TEK). […] Glucokinase activity was calculated as follows:
(§2) Glucokinase activity (U/g of total protein extract)=dOD×V/[dt×l×ε×Qprot], wherein: • dOD is the variation of optical density (OD) at 340 nm • V is the volume of the reaction (herein 250 μL)
(§3) Measurements were triplicated for each sample, and the glucokinase specific activity values given herein under test A are the mean of three independent experiments.
(§4) Measurements were triplicated for each sample, and the Vmax values given herein under test C are the mean of three independent experiments.
(§5) The respective mutants were called ST1.1m-glcK and ST1.2m-glcK. The GlcK sequence of these 2 mutants is as defined in SEQ ID NO:22.

[4] = target: T4, Streptococcus thermophilus glucokinase (GlcK) of strain ST1.2 (parent) (Streptococcus thermophilus, UniProt Q5M4Y5)
T4 construct: G-6PDH/NADP coupled assay
T4 sequence (Q5M4Y5 1-322): T1 sequence (Q5M4Y5 1-322)
Method: as §1, §2, §3, §4, §5

[5] = target: T5, Streptococcus thermophilus glucokinase (GlcK) variant E275K of ST1.1, strain ST1.1m-glcK, SEQ ID NO: 22 (Streptococcus thermophilus, UniProt Q5M4Y5, E275K)
T5 construct: G-6PDH/NADP coupled assay
T5 sequence (Q5M4Y5 1-322 E275K): T1 sequence (Q5M4Y5 1-322) with E275K
Method: as §1, §2, §3, §4, §5

[6] = target: T6, Streptococcus thermophilus glucokinase (GlcK) variant E275K of ST1.2, strain ST1.2m-glcK, SEQ ID NO: 22 (Streptococcus thermophilus, UniProt Q5M4Y5, E275K)
T6 construct: G-6PDH/NADP coupled assay
T6 sequence (Q5M4Y5 1-322 E275K): T1 sequence (Q5M4Y5 1-322) with E275K
Method: as §1, §2, §3, §4, §5

OC[C@H]1OC(O)[C@H](O)[C@@H](O)[C@@H]1O (some centres unmarked) [glucose]
Vmax Glucokinase (glucose) [1]: 2855 U/g total protein extract
Vmax Glucokinase (glucose) ([2]; average of three experiments): 914 U/g total protein extract
Km ([2]; read-out: Km Glucokinase (glucose), average): 1.33 mM
Vm Glucokinase (glucose) ([3]; ST1.1, summary table): 2687
Vmax Glucokinase (glucose) ([3]; ST1.1 crude extract, glucose 0, 5, 10, 15, 20 mM, 1 mM ATP, pH 7.2, 30° C, average of three experiments): 2687 U/g total protein extract
Vm Glucokinase (glucose) ([4]; ST1.2, summary table): 2431
Vmax Glucokinase (glucose) ([4]; ST1.2 crude extract, glucose 0, 5, 10, 15, 20 mM, 1 mM ATP, pH 7.2, 30° C, average of three experiments): 2431 U/g total protein extract
Vmax Glucokinase (glucose) ([5]; ST1.1m-glcK crude extract, glucose 0, 5, 10, 15, 20 mM, 1 mM ATP, pH 7.2, 30° C, average of three experiments): 795 U/g total protein extract
Vm Glucokinase (glucose) ([5]; ST1.1m-glcK, summary table): 795
Vmax Glucokinase (glucose) ([6]; ST1.2m-glcK crude extract, glucose 0, 5, 10, 15, 20 mM, 1 mM ATP, pH 7.2, 30° C, average of three experiments): 501 U/g total protein extract
Vm Glucokinase (glucose) ([6]; ST1.2m-glcK, summary table): 501
